Results: patent publication EP4516309A1, “CRHR1 AGONISTS FOR USE IN THE TREATMENT OF SOCIAL ANXIETY DISORDERS” (Consejo Superior de Investigaciones Cientificas, priority 2023, dated 2025)

Biological target: T1, inhibitory DREADD (Homo sapiens, UniProt P08173, A203G/Y113C)
T1 construct: host or cells: ILA CRH+ neurons of CRH-Cre mice, Cre-dependent AAV2/8 transduction in vivo
T1 sequence (P08173 1-479 Y113C/A203G): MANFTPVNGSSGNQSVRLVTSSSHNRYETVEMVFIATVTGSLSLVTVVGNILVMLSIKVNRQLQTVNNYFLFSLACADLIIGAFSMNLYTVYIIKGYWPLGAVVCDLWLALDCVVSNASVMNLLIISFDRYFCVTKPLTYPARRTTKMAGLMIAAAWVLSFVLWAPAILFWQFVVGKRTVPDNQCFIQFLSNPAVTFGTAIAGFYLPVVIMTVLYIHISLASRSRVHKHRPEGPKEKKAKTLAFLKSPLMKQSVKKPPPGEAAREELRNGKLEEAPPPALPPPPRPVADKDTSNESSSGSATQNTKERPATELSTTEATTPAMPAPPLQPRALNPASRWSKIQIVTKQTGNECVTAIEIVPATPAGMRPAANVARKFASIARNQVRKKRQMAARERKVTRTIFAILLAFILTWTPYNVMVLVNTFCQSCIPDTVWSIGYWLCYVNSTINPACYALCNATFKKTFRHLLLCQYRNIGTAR
Assay: c-fos / mCherry overlap in ILA after familiar animal presentation, inhibitory DREADD
Type: in vivo, CRH-Cre mice
Settings: CNO i.p. 30 min before familiar animal presentation; vs. saline
Experimental: Mice were anesthetized using isoflurane then perfused in the heart with 10 mL saline and their brains were quickly extracted and incubated in 4% PFA overnight. After 1 h washing in PBS, 60 µm slices were prepared using a Leica VT1000S vibratome (Leica Biosystems). Unless indicated otherwise, slices were permeabilized for 2h in PBS with 0.5% Triton-X100 (T9284, Sigma-Aldrich) in PBS before being incubated overnight at 4°C with primary antibodies diluted in PBS with 0.5% Triton-X in PBS. The slices were washed in PBS for 1 h then incubated overnight at 4°C with secondary antibodies from Thermo-Fisher Scientific at a concentration of 1:500 diluted in PBS with 0.1% Triton-X. Hoechst counterstain was applied (Hoechst 33342 at 1:1000 for 30 min in PBS at RT) prior to mounting the slice using fluoromount (Sigma-Aldrich). Images were acquired using inverted confocal microscopes (Ism 900, Zeiss and SPII, Leica) or an epifluorescent microscope (Thunder, Leica). For post-hoc immunocytochemistry after patch-clamp recordings, slices were fixed for 1 h in PBS with 4% PFA and streptavidin was applied during secondary incubation. • For mRuby and GFP labelling, primary incubation was performed overnight at 4°C with rabbit anti-RFP (1:500, Rockland Antibody, #600-401-379) and chicken anti-GFP (1:1000, Aves, #GFP-1020) antibodies. […]

C[N+]1([O-])CCN(C2=Nc3cc(Cl)ccc3Nc3ccccc32)CC1 [CNO, clozapine N-oxide]
c-fos/mCherry+ cells in ILA: less c-fos/mCherry+ cells compared to the saline control
